Measured values from patent US20240390377A1, “COMPOSITION FOR THE PREVENTION OR TREATMENT OF NEURODEGENERATIVE OR MOTOR NEURON DISEASES COMPRISING HALOFUGINONE AS AN ACTIVE INGREDIENT” (CURAMYS CO., LTD., priority 2022, published 2024).

Legend:
[1] = tested on: C2C12 cells; assay: Immunocytochemical analysis of TGF-β1-stimulated C2C12 myoblasts; type: cell-based, mouse; settings: low or high concentration halofuginone after TGF-β1 stimulation (FIG. 4c)
Protocol: Specifically, C2C12 cells were plated in 6-well plates with coverslips and stimulated with rhTGF-β1 in serum-free medium. After 24 hours of stimulation, the cells were treated with low or high concentrations of halofuginone in serum-free medium for 24 hours. The cells were washed three times with PBS and fixed in 4% paraformaldehyde at room temperature for 15 minutes. The fixed cells were then washed three times with PBS and treated with 0.5% Triton X-100 for 5 minutes. Subsequently, they were blocked with 5% bovine serum albumin in 0.3% PBS-T for 1 hour at room temperature. The cells were incubated with anti-α-SMA antibody (1:200; abcam cat #ab7817) and anti-MyoD antibody (1:200; Santa Cruz, cat #sc377460) in blocking buffer at 4° C. for 24 hours. After washing three times with PBS, the cells were incubated with Alexa Fluor secondary antibodies at room temperature for 1 hour. Nuclear DNA was stained with DAPI (4,6-diamino-2-phenylindole, 1:1,000; Sigma), washed twice with PBS, and coverslips were mounted on glass slides using a Dako fluorescence mounting medium (Dako). […] In addition, it was quantified in a blind manner using Leica Application Suite X software (Leica Microsystems). […]

[2] = tested on: G93A mutant SOD1 transgenic mice; assay: Western blot analysis of lumbar spinal cord in ALS animal model; type: in vivo, mouse
Protocol: As a control group, non-transgenic mice were injected intraperitoneally (i.p.) with vehicle (DMSO) in the same manner for the same period of time.
Specifically, the lumbar spinal cord or knee joint of the mouse of Example 6 was separated and immediately frozen at −80° C. Each lumbar spinal cord or knee joint was then homogenized and chemically treated to obtain cells. The chemically treated cells, the C2C12 cells of Example 1 or the fibroblasts of Example 5 were dissolved in a RIPA buffer (Thermo, MA, USA) with a protease inhibitor and a phosphatase inhibitor (Roche, IN, USA) and incubated on ice for 30 minutes. After centrifugation of the lysate at 13,000 rpm at 4° C. for 20 min, insoluble substances were removed. Protein concentrations were measured by BCA analysis (Pierce Biotechnology). Equal volumes of cell lysate were loaded onto SDS-PAGE gels for electrophoresis, and transferred onto nitrocellulose membranes (Amersham Protran 0.2 um NC, Amersham Pharmacia Biotech, Piscataway, NJ, USA). The membranes were then blocked with 5% (w/v) skimmilk in 1×TBST for 1 h at room temperature. After blocking, anti-RB-actin antibody (1:5000; Santa Cruz, cat #sc47778), anti-Smad2 antibody (1:1000; Cell Signaling, cat #5339), anti-p-Smad2 antibody (1:1000; Cell Signaling, cat #3108), anti-TGF-β1 antibody (1:1000; Santa Cruz, cat #sc130348), anti-α-SMA antibody (1:10000; abcam cat #ab7817), anti-MyoD antibody (1:1000; cat #sc377460), anti-collagen|antibody (1:1000; abcam cat #ab21286), anti-cleaved caspase-3 antibody (1:1000; Cell Signaling, cat #9661), anti-bax antibody (1:500; Santa Cruz, cat #sc493), anti-bcl2 antibody (1:1000; Novus Biologics, cat #NB100-56098), anti-ChAT antibody (1:1000; Millipore, cat #AB144) were treated and incubated overnight at 4° C. […] The membranes were then washed, briefly incubated with the SuperSignal West Pico Plus Chemical Substructure (Pierce Biotechnology) according to the manufacturer's procedure, and quantified with an image analyzer (Amersham Pharmacia Biotech, Piscataway, NJ, USA). β-actin was used as an internal control group. The concentration measurement of protein intensity was quantified using Image J (National Institutes of Health).
In addition, to investigate the motor neuron source of the spinal cord, motor neurons of the lumbar spinal cord were observed and counted in the same manner as described in Example 9 (FIG. 9d), and real-time qRT-PCR and Western blot analysis were performed in the same manner as described in Example 11 and Example 12 to quantitatively analyze the expression of ChAT mRNA (FIG. 9e) and ChAT protein (FIG. 9f). […]

[3] = 120 days of age, change in DMSO TG vs DMSO Non-TG (FIG. 11b)

O=C(C[C@H]1NCCC[C@@H]1O)Cn1cnc2cc(Br)c(Cl)cc2c1=O (racemic) [halofuginone]
intensity of MyoD (immunofluorescence) [1]: recovery | intensity of α-SMA (immunofluorescence) [1]: reduction | ChAT expression (protein) in lumbar spinal cord ([2]; 120-day-old mice, compared to DMSO Non-TG group (FIG. 9f)): preserved similarly | decreased protein expression of bcl-2 in lumbar spinal cord [2, 3]: improved | increased protein expression of bax in lumbar spinal cord [2, 3]: improved | increased protein expression of cleaved caspase-3 in lumbar spinal cord [2, 3]: improved
